Structures can show the parent of a compound that is named as a salt.
Columns and labels:
5HT2a receptor = 5HT2a receptor (Homo sapiens (Human), UniProt P28223); experiment: Secondary radioligand binding assay, 5HT2a; conditions: average of at least two experiments
5HT1a receptor = 5HT1a receptor (Homo sapiens (Human), UniProt P08908); experiment: Secondary radioligand binding assay, 5HT1a; conditions: average of at least two experiments
5HT2c receptor = 5HT2c receptor (Homo sapiens (Human), UniProt P28335); experiment: Secondary radioligand binding assay, 5HT2c; conditions: average of at least two experiments
dopamine D4 receptor = dopamine D4 receptor (Homo sapiens (Human), UniProt P21917); experiment: Secondary radioligand binding assay, D4; conditions: receptor binding; average of at least two experiments; read-out: Ki D4
Protocol: 1. Secondary Radioligand Binding Assays
The detailed experimental protocols for the radioligand and functional receptor assays are available on the NIMH PDSP website at http://pdsp.med.unc.edu/UNC-CH %20Protocol %20Book.pdf.
Radioligand is diluted to five times the assay concentration (see Table 18) in Standard Binding Buffer. Typically, the assay concentration of radioligand is a value between one half the KD and the KD of a particular radioligand at its target. 50 μl aliquots of radioligand are dispensed into the wells of a 96-well plate containing 100 μl of Standard Binding Buffer. Then, duplicate 50 μl aliquots of the test and reference compound dilutions are added.
The 250 μl reactions are incubated at room temperature and shielded from light (to prevent photolysis of light-sensitive ligands) for 1.5 hours, then harvested by rapid filtration onto Whatman GF/B glass fiber filters pre-soaked with 0.3% polyethyleneimine using a 96-well Brandel harverster. Four rapid 500 μl washes are performed with chilled Standard Binding Buffer to reduce non-specific binding. Filters are placed in 6 ml scintillation tubes and allowed to dry overnight. The next day, 4 ml of EcoScint scintillation cocktail (National Diagnostics) are added to each tube. The tubes are capped, labeled, and counted by liquid scintillation counting. […] The filter mats are dried, then scintillant is melted onto the filters and the radioactivity retained on the filters is counted in a Microbeta scintillation counter.
Raw data (dpm) representing total radioligand binding (i.e. specific+non-specific binding) are plotted as a function of the logarithm of the molar concentration of the competitor (i.e. test or reference compound).
B. Dopamine Receptors: D1, D2, D3, D4, D5 Assay Buffers: Dopamine Binding Buffer (50 mM NaCl, 50 mM HEPES-HCl, 5 mM MgCl2, 0.5 mM EDTA, pH 7.4) Membrane Fraction Source: Transiently or stably transfected cell lines (e.g. HEK293, COS, CHO, NIH3T3)
The method is carried out in the manner described for the serotonin receptor assay above. Eleven dilutions (5× assay concentration) of the test and reference (see Table 19) compounds are prepared in Dopamine Binding Buffer by serial dilution, as previously described. Radioligand is diluted to five times the assay concentration (see Table 20) in Dopamine Binding Buffer.

Sequence of 5HT2a receptor (P28223 whole entry): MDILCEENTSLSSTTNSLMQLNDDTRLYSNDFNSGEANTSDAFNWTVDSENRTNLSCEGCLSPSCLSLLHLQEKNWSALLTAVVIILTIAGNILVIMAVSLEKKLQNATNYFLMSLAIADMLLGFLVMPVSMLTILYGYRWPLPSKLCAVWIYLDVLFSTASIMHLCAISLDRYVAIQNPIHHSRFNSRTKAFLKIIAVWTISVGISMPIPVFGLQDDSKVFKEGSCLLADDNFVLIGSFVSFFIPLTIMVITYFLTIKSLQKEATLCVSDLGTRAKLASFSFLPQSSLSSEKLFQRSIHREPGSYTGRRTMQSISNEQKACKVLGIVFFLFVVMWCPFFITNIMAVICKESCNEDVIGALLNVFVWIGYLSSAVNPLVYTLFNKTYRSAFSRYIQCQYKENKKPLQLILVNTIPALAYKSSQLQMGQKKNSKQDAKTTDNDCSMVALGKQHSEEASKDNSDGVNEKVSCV
Sequence of 5HT2c receptor (P28335 33-458): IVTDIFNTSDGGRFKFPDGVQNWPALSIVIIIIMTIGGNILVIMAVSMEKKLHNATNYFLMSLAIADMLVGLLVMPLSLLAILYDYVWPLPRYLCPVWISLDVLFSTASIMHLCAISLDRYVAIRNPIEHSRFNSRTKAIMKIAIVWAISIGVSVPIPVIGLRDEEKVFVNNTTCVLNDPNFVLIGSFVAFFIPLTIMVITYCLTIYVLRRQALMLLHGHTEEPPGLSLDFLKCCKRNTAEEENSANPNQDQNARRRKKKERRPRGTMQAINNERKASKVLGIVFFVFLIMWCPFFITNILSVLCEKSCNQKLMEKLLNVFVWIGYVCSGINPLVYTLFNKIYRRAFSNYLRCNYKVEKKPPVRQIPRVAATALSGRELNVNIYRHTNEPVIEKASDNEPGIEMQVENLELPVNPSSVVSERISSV
Sequence of 5HT1a receptor (P08908 whole entry): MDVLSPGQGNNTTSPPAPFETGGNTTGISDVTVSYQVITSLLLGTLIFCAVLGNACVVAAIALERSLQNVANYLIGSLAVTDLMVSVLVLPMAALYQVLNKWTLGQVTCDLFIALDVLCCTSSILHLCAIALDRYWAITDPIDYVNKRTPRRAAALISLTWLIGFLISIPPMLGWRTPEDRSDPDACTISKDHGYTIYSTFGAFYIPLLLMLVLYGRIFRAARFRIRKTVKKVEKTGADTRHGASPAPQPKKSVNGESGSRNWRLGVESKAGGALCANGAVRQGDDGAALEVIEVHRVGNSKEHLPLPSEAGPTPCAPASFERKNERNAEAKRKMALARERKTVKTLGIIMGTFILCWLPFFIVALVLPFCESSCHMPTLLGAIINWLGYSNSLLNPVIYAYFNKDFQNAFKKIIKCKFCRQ
Sequence of dopamine D4 receptor (P21917 whole entry, species assumed): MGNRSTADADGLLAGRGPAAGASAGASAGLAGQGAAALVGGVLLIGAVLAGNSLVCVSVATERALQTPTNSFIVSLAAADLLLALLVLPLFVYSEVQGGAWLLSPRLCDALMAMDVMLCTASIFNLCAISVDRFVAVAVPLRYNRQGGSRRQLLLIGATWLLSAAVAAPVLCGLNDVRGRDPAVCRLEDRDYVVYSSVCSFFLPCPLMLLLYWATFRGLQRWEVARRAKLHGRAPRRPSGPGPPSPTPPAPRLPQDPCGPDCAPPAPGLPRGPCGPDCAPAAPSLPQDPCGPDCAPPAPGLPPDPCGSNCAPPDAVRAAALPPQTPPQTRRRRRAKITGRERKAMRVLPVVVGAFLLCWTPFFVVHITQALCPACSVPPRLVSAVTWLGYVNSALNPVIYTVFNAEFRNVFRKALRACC

Ki (5HT2a receptor) [nM]	Ki (5HT1a receptor) [nM]	Ki (5HT2c receptor) [nM]	Ki (dopamine D4 receptor) [nM]	Structure (SMILES)
3780	1470			COc1cccc(OC[C@H]2CN(CCN3CCc4ccccc43)CCO2)c1 [Compound 25r, (R)-4-(2-(Indolin-1-yl)ethyl)-2-((3-methoxyphenoxy)methyl)morpholine]
374		1110	3930	Fc1ccc(OC[C@@H]2CN(CCN3CCc4ccccc43)CCO2)cc1 [Compound 32s, (S)-2-((4-fluorophenoxy)methyl)-4-(2-(indolin-1-yl)ethyl)morpholine hydrochloride]

Reference: patent US9079895B2, “Morpholino compounds, uses and methods” (University of Dundee, priority 2012, dated 2015)
